Reference: patent US20240376113A1 (Volastra Therapeutics, Inc., priority 2020, published 2024)
Like-named read-outs stand apart in the source and are kept apart here.

Target: ENPP-1 ECD (Homo sapiens (Human), UniProt P22413)
Assay: Inhibition of ENPP1 hydrolysis of 2′,3′-cGAMP (Assay 1)
Details: AMP-Glo luminescence, KI from IC50 via Cheng/Prusoff
[1] = read-out: Assay 1 KI values (class), 2,3-cGAMP 24 μM
[2] = read-out: Assay 1 KI, 2,3-cGAMP 24 μM
[3] = Assay 1 KI values (class), 2,3-cGAMP 24 μM

Sequence of ENPP-1 ECD (P22413 98-925): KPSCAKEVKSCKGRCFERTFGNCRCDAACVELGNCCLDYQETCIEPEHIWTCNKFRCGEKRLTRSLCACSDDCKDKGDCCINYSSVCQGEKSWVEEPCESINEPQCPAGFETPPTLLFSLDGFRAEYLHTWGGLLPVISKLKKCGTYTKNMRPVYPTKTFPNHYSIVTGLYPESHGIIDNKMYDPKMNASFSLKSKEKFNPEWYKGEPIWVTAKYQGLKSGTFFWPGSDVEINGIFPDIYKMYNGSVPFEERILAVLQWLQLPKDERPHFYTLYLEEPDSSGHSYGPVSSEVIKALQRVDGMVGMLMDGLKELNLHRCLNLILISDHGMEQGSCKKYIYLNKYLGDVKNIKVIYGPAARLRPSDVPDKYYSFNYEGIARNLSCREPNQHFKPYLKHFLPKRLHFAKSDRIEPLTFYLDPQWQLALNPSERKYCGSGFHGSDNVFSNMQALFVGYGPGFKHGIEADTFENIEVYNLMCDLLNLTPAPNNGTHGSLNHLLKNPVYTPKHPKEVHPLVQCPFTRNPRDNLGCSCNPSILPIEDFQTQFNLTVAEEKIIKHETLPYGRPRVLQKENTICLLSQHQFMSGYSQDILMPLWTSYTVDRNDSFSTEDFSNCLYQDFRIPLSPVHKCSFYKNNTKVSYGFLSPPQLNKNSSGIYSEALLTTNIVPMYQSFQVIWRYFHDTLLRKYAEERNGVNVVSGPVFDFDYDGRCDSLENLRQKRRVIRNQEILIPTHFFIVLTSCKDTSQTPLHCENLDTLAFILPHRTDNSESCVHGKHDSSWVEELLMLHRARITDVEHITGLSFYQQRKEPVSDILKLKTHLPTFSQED
Method: Test compounds were plated in a 3× dilution scheme in a 384 well plate.

| Molecule | Ki [1] [nM] | Ki [2] [nM] | Ki [3] [nM] | Ki (Assay 1 KI, 2,3-cGAMP 24 μM) [nM] |
| --- | --- | --- | --- | --- |
| 3-[(4-{[7-(dimethylamino)-5-methyl-[1,2,4]triazolo[1,5-a]pyrimidin-6-yl]methyl}phenyl)(imino)oxo-λ^6-sulfanyl]propaneitrile [Compound 61] | < 3 | 0.375 |  |  |
| Cc1nc2ncnn2c(N(C)C)c1Cc1ccc([S@](C)(=N)=O)cc1 (single isomer, unassigned) [Compound 1a] | 3 to 300 | 13.4 |  |  |
| Cc1nc2ncnn2c(N2CCCC2)c1Cc1ccc([S@@](C)(=N)=O)cc1 (single isomer, unassigned) [Compound 8b] | 3 to 300 | 13.4 |  |  |
| Cc1cc2ncnn2c(N(C)C)c1Cc1ccc([S@@](C)(=N)=O)cc1 (single isomer, unassigned) [Compound 28b] | 3 to 300 | 10 |  |  |
| Cc1nc2ncnn2c(N(C)C)c1Cc1ccc([S@](C)(=N)=O)cc1 (single isomer, unassigned) [Compound 49b] | < 3 | 0.356 |  |  |
| Cc1c(Cc2ccc([S@](C)(=N)=O)cc2)c(N(C)C)n2ncnc2c1C#N (single isomer, unassigned) [Compound 85b] |  | 11.1 |  |  |
| Cc1nc2ncnn2c(N(C)C)c1Cc1cccc(NS(N)(=O)=O)c1 [Compound 3, N-(3-{[7-(dimethylamino)-5-methyl-[1,2,4]triazolo[1,5-a]pyrimidin-6-yl]methyl}phenyl)aminosulfonamide] |  |  | 3 to 300 | 222 |
| Cc1nc2ncnn2c(N(C)C)c1Cc1cccc(S(C)(=N)=O)c1 (stereo not shown) [Compound 4, (3-((7-(dimethylamino)-5-methyl-[1,2,4]triazolo[1,5-a]pyrimidin-6-yl)methyl)phenyl)(imino)(methyl)-λ^6-sulfanone] |  | 537 | > 300 |  |
| Cc1nc2ncnn2c(N(C)C)c1CC1CCN(S(N)(=O)=O)CC1 [Compound 15, 4-{[7-(dimethylamino)-5-methyl-[1,2,4]triazolo[1,5-a]pyrimidin-6-yl]methyl}piperidine-1-sulfonamide] |  | 495 | 3 to 300 |  |
| Cc1nc2ncnn2c(N2CCCCC2)c1Cc1ccc([S@@](C)(=N)=O)cc1 [Compound 16b] | 3 to 300 | 3.17 |  |  |
| Cc1nc2ncnn2c(-n2cccn2)c1Cc1ccc(S(C)(=N)=O)cc1 (stereo not shown) [Compound 18, imino(methyl)(4-((5-methyl-7-(1H-pyrazol-1-yl)-[1,2,4]triazolo[1,5-a]pyrimidin-6-yl)methyl)phenyl)-λ^6-sulfanone] |  | 6.99 | 3 to 300 |  |
| Cc1nc2ncnn2c(C)c1Cc1ccc(S(C)(=N)=O)cc1 (stereo not shown) [Compound 26, [4-({5,7-dimethyl-[1,2,4]triazolo[1,5-a]pyrimidin-6-yl}methyl)phenyl](imino)methyl-λ6-sulfanone] |  | 13.6 | 3 to 300 |  |
| Cc1nc2nccn2c(N(C)C)c1Cc1ccc([S@@](C)(=N)=O)cc1 [Compound 29b] | 3 to 300 | 42.2 |  |  |
| CCN(CC)c1c(Cc2ccc(S(C)(=N)=O)cc2)c(C)nc2ncnn12 (stereo not shown) [Compound 38] |  | 37.9 | 3 to 300 |  |
| Cc1nc2ncnn2c(N(C)C2CC2)c1Cc1ccc(S(C)(=N)=O)cc1 (stereo not shown) [Compound 39, [4-({7-[cyclopropyl(methyl)amino]-5-methyl-[1,2,4]triazolo[1,5-a]pyrimidin-6-yl}methyl)phenyl](imino)methyl-λ^6-sulfanone] |  |  | 3 to 300 |  |
| Cc1nc2ncnn2c(N(C)C2CCC2)c1Cc1ccc(S(C)(=N)=O)cc1 (stereo not shown) [Compound 40] |  | 27 | 3 to 300 |  |

| Molecule | Ki [1] [nM] | Ki [2] [nM] | Ki [3] [nM] | Ki (Assay 1 KI, 2,3-cGAMP 24 μM) [nM] |
| --- | --- | --- | --- | --- |
| Cc1nc2ncnn2c(N2CC(F)(F)C2)c1Cc1ccc(S(C)(=N)=O)cc1 (stereo not shown) [Compound 41] |  | 10.8 | 3 to 300 |  |
| Cc1nc2ncnn2c(N2CC(C)(C)C2)c1Cc1ccc(S(C)(=N)=O)cc1 (stereo not shown) [Compound 42, (4-{[7-(3,3-dimethylazetidin-1-yl)-5-methyl-[1,2,4]triazolo[1,5-a]pyrimidin-6-yl]methyl}phenyl)(imino)methyl-λ^6-sulfanone] |  |  | 3 to 300 |  |
| Cc1nc2ncnn2c(N2CCC(F)(F)CC2)c1Cc1ccc(S(C)(=N)=O)cc1 (stereo not shown) [Compound 43, (4-{[7-(4,4-difluoropiperidin-1-yl)-5-methyl-[1,2,4]triazolo[1,5-a]pyrimidin-6-yl]methyl}phenyl)(imino)methyl-λ^6-sulfanone] |  |  | 3 to 300 |  |
| Cc1nc2ncnn2c(N2C3CCC2CC3)c1Cc1ccc(S(C)(=N)=O)cc1 (stereo not shown) [Compound 44, {4-[(7-{7-azabicyclo[2.2.1]heptan-7-yl}-5-methyl-[1,2,4]triazolo[1,5-a]pyrimidin-6-yl)methyl]phenyl}(imino)methyl-λ^6-sulfanone] |  |  | 3 to 300 |  |
| Cc1nc2ncnn2c(N2CC3CC2C3)c1Cc1ccc(S(C)(=N)=O)cc1 (stereo not shown) [Compound 45, {4-[(7-{2-azabicyclo[2.1.1]heptan-2-yl}-5-methyl-[1,2,4]triazolo[1,5-a]pyrimidin-6-yl)methyl]phenyl}(imino)methyl-λ^6-sulfanone] |  | 9.83 | 3 to 300 |  |
| Cc1nc2ncnn2c(N2CC3CC(C3)C2)c1Cc1ccc(S(C)(=N)=O)cc1 (stereo not shown) [Compound 46, {4-[(7-{3-azabicyclo[3.1.1]heptan-3-yl}-5-methyl-[1,2,4]triazolo[1,5-a]pyrimidin-6-yl)methyl]phenyl}(imino)methyl-λ^6-sulfanone] |  |  | 3 to 300 |  |
| Cc1nc2ncnn2c(N2C3CCCC2CC3)c1Cc1ccc(S(C)(=N)=O)cc1 (stereo not shown) [Compound 47] |  | 50.9 | 3 to 300 |  |
| Cc1nc2ncnn2c(N2CC3CC3C2)c1Cc1ccc(S(C)(=N)=O)cc1 (stereo not shown) [Compound 48, {4-[(7-{3-azabicyclo[3.1.0]heptan-3-yl}-5-methyl-[1,2,4]triazolo[1,5-a]pyrimidin-6-yl)methyl]phenyl}(imino)methyl-λ^6-sulfanone] |  | 2.65 | < 3 |  |
| CN(C)c1c(Cc2ccc(S(C)(=N)=O)cc2)c(C(F)(F)F)nc2ncnn12 (stereo not shown) [Compound 51] |  | 5.56 | 3 to 300 |  |
| CS(=N)(=O)c1ccc(Cc2c(C(F)(F)F)nc3ncnn3c2N2CCCCC2)cc1 (stereo not shown) [Compound 52] |  | 4.85 | 3 to 300 |  |
| Cc1nc2ncnn2c(N(C)C)c1Cc1ccc(S(=N)(=O)C2COC2)cc1 (stereo not shown) [Compound 62, [(4-{[7-(dimethylamino)-5-methyl-[1,2,4]triazolo[1,5-a]pyrimidin-6-yl]methyl}phenyl)(oxetan-3-yl)imino-λ^6-sulfanyl]one] |  | 0.19 | < 3 |  |
| Cc1nc2ncnn2c(N(C)C)c1Cc1ccc(S(=N)(=O)C2CC2)cc1 (stereo not shown) [Compound 63, [cyclopropyl(4-{[7-(dimethylamino)-5-methyl-[1,2,4]triazolo[1,5-a]pyrimidin-6-yl]methyl}phenyl)imino-λ^6-sulfanyl]one] |  | 0.0363 | < 3 |  |
| Cc1nc2ncnn2c(N(C)C)c1Cc1cccc(S(N)(=O)=O)c1 [Compound 65, 3-{[7-(dimethylamino)-5-methyl-[1,2,4]triazolo[1,5-a]pyrimidin-6-yl]methyl}benzene-1-sulfonamide] |  | 181 | 3 to 300 |  |
| CS(=N)(=O)Cc1ccc(-c2cnc3ncnn3c2)cc1 (stereo not shown) [Compound 66, imino(methyl)[(4-{[1,2,4]triazolo[1,5-a]pyrimidin-6-yl}phenyl)methyl]-λ^6-sulfanone] |  | > 1500 | > 300 |  |
| Cc1nc2ncnn2c(N(C)C)c1-c1ccc(CCS(C)(=N)=O)cc1 (stereo not shown) [Compound 68, (2-{4-[7-(dimethylamino)-5-methyl-[1,2,4]triazolo[1,5-a]pyrimidin-6-yl]phenyl}ethyl)(imino)methyl-λ^6-sulfanone] |  |  | 3 to 300 |  |
